Experimental data taken from EP4800016A1, “METTL3 INHIBITOR” (Hangzhou Bangshun Pharmaceutical Co., Ltd., priority 2023, dated 2025).

Target: T1, METTL3/14 (Homo sapiens, UniProt Q86U44)
T1 construct: purchased active motif 31570
Assay: METTL3/14 methyltransferase activity assay (HTRF)
Type: biochemical
Settings: 10 concentrations, 3-fold dilution from 10 µM
Protocol: The final initial concentration of the compound was 10 µM, with 3-fold serial dilution to give a total of 10 concentrations. 100 nL of the compound was transferred to a 384-well plate and centrifuged at 1000 RPM. 2.5 µL of METTL3/14 (active motif, Cat No. 31570) was added to the test wells and incubated at 25°C for 10 min. 2.5 µL of METTL3-Biotin & SAM (GenScript) was added to the test wells andincubated at 25°C for 60 min. 2.5 µL of YTHDF1 (active motif, Cat No. 31608) was added to the test wells and centrifuged at 1000 RPM. 2.5 µL of Streptavidin-Tb (Perkin Elmer Cat No. 61SATLB) & Flag-mede (Perkin Elmer Cat No. 61FG2DLA) was added to the test wells and centrifuged at 1000 RPM. Incubated at 25°C for 60 min. HTRF was measured using a Plate reader. The results of each compound are shown in Table 1, where A+indicates <10nM, A indicates 10-100nM, B indicates 100-1000nM, and C indicates >1000nM.

T1 sequence (Q86U44 whole entry): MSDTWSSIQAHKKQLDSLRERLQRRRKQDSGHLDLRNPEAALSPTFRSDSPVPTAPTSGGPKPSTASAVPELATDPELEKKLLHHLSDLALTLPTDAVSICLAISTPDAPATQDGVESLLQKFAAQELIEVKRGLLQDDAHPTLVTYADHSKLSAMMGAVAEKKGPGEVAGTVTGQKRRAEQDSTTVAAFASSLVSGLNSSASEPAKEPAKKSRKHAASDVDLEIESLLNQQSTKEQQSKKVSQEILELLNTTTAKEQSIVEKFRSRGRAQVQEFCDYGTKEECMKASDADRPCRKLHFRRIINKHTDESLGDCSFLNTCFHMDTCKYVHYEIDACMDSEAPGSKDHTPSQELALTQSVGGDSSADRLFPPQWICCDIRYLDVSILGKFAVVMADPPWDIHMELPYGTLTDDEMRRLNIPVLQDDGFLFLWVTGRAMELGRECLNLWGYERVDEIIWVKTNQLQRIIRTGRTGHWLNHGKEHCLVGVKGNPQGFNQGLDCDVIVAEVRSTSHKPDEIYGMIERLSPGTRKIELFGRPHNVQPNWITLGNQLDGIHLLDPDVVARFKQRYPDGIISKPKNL
T1 sequence (Q9HCE5 whole entry partner): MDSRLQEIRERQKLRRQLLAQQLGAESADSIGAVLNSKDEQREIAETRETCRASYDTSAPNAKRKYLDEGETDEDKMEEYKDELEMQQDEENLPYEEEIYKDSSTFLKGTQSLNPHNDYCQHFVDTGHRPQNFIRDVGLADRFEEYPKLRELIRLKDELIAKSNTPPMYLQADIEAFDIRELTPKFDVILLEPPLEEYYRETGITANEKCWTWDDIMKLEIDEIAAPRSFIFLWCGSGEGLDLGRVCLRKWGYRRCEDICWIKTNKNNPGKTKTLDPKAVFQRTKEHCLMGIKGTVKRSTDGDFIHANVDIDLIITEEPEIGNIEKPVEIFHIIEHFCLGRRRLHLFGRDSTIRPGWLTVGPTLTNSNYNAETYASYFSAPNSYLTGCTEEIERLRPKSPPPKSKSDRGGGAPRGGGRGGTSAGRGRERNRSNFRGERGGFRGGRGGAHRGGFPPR

Structure (SMILES)	IC50 [nM]
O=C(NCc1ccc2cc(CNCC3CCC3)[nH]c2c1)c1cn2nccc(N3CCOCC3)c2n1 [Example 8, N-((2-(((Cyclobutylmethyl)amino)methyl)-1H-indol-6-yl)methyl)-8-morpholinoimidazo[1,2-b]pyridazine-2-carboxamide]	100 to 1000
O=C(NCc1ccc2cc(CNCC3CCC3)[nH]c2c1)c1cn2nccc2c(N2CCCC2)n1 [Example 15, N-((2-(((Cyclobutylmethyl)amino)methyl)-1H-indol-6-yl)methyl)-4-(pyrrolidin-1-yl)pyrazolo[1,5-a]pyrazine-6-carboxamide]	100 to 1000
O=C(NCc1cc2ccc(CNCC3CCC3)cc2[nH]1)c1cc(=O)n2ccccc2n1 [Example 21, N-((6-(((Cyclobutylmethyl)amino)methyl)-1H-indol-2-yl)methyl)-4-oxo-4H-pyrido[1,2-a]pyrimidine-2-carboxamide]	100 to 1000
O=C(NCc1ccc2cc(CNCC3CC(=C(F)F)C3)[nH]c2c1)c1cc(=O)n2cc3c(cc2n1)OCCO3 (stereo not shown) [Example 28, N-((2-((((3-(Difluoromethylene)cyclobutyl)methyl)amino)methyl)-1H-indol-6-yl)methyl)-9-oxo-2,3-dihydro-9H-[1,4]dioxino[2',3':4,5]pyrido[1,2-a]pyrimidine-7-carboxamide]	100 to 1000
O=C(NCc1ccc2cc(CN3CCC(F)(F)CC3)[nH]c2c1)c1cc(=O)n2cc3c(cc2n1)OCO3 [Example 29, N-((2-((4,4-Difluoropiperidin-1-yl)methyl)-1H-indol-6-yl)methyl)-8-oxo-8H-[1,3]dioxolo[4',5':4,5]pyrido[1,2-a]pyrimidine-6-carboxamide]	10 to 100
O=C(NCc1ccc2cc(CNCC3CCC3)[nH]c2c1)c1cc(=O)n2cc3c(cc2n1)OC(F)(F)O3 [Example 30, N-((2-(((Cyclobutylmethyl)amino)methyl)-1H-indol-6-yl)methyl)-2,2-difluoro-8-oxo-8H-[1,3]dioxolo[4',5':4,5]pyrido[1,2-a]pyrimidine-6-carboxamide]	10 to 100
O=C(NCc1cc2[nH]c(CNCC3CCC3)cc2s1)c1cc(=O)n2cc3c(cc2n1)OCCO3 [Example 31, N-((5-(((cyclobutylmethyl)amino)methyl)-4H-thieno[3,2-b]pyrrol-2-yl)methyl)-9-oxo-2,3-dihydro-9H-[1,4]dioxino[2',3':4,5]pyrido[1,2-a]pyrimidine-7-carboxamide]	10 to 100
O=C(NCc1ccc2cc(CN3CCc4ccccc4C3)[nH]c2c1)c1cc(=O)n2cc3c(cc2n1)OCO3 [Example 34, N-((2-((3,4-dihydroisoquinolin-2(1H)-yl)methyl)-1H-indol-6-yl)methyl)-8-oxo-8H-[1,3]dioxolo[4',5':4,5]pyrido[1,2-a]pyrimidine-6-carboxamide]	10 to 100
O=C(NCc1ccc2cc(CNC3CCC(F)(F)CC3)[nH]c2c1)c1cc(=O)n2cc3c(cc2n1)OCO3 [Example 37, N-((2-(((4,4-Difluorocyclohexyl)amino)methyl)-1H-indol-6-yl)methyl)-8-oxo-8H-[1,3]dioxolo[4',5':4,5]pyrido[1,2-a]pyrimidine-6-carboxamide]	10 to 100
O=C(NCc1ccc2cc(CNC3CC(F)(F)C3)[nH]c2c1)c1cc(=O)n2cc3c(cc2n1)OCO3 [Example 39, N-((2-(((3,3-Difluorocyclobutyl)amino)methyl)-1H-indol-6-yl)methyl)-8-oxo-8H-[1,3]dioxolo[4',5':4,5]pyrido[1,2-a]pyrimidine-6-carboxamide]	10 to 100
O=C(NCc1ccc2cc(CNCC3(C(F)(F)F)CC3)[nH]c2c1)c1cc(=O)n2cc3c(cc2n1)OCO3 [Example 40, 8-Oxo-N-((2-((((1-(trifluoromethyl)cyclopropyl)methyl)amino)methyl)-1H-indol-6-yl)methyl)-8H-[1,3]dioxolo[4',5':4,5]pyrido[1,2-a]pyrimidine-6-carboxamide]	10 to 100
O=C(NC1(c2ccc3cc(CNCC4CCC4)[nH]c3c2)CC1)c1cc(=O)n2cc3c(cc2n1)OCO3 [Example 42, N-(1-(2-(((Cyclobutylmethyl)amino)methyl)-1H-indol-6-yl)cyclopropyl)-8-oxo-8H-[1,3]dioxolo[4',5':4,5]pyrido[1,2-a]pyrimidine-6-carboxamide]	100 to 1000
O=C(NC1(c2ccc3cc(CNCC4CCC4)[nH]c3c2)CC1)c1cc(=O)n2cc3c(cc2n1)OCCO3 [Example 43, N-(1-(2-(((Cyclobutylmethyl)amino)methyl)-1H-indol-6-yl)cyclopropyl)-9-oxo-2,3-dihydro-9H-[1,4]dioxino[2',3':4,5]pyrido[1,2-a]pyrimidine-7-carboxamide]	10 to 100
O=C(NCc1ccc2cc(CNCC3(C(F)(F)F)CCC3)[nH]c2c1)c1cc(=O)n2cc3c(cc2n1)OCO3 [Example 56, 8-Oxo-N-((2-((((1-(trifluoromethyl)cyclobutyl)methyl)amino)methyl)-1H-indol-6-yl)methyl)-8H-[1,3]dioxolo[4',5':4,5]pyrido[1,2-a]pyrimidine-6-carboxamide]	10 to 100
O=C(NCc1ccc2cc(CNCC3CC4(CCC4)C3)[nH]c2c1)c1cc(=O)n2cc3c(cc2n1)OCO3 [Example 58, 8-Oxo-N-((2-(((spiro[3.3]heptan-2-ylmethyl)amino)methyl)-1H-indol-6-yl)methyl)-8H-[1,3]dioxolo[4',5':4,5]pyrido[1,2-a]pyrimidine-6-carboxamide]	10 to 100
CN1CCOc2cnn3cc(C(=O)NCc4ccc5cc(CNCC6CCC6)[nH]c5c4)nc1c23 [Example 59, N-((2-(((Cyclobutylmethyl)amino)methyl)-1H-indol-6-yl)methyl)-6-methyl-7,8-dihydro-6H-9-oxa-2,2a,5,6-tetraazabenzo[cd]azulene-4-carboxamide]	100 to 1000
O=C(NCc1ccc2cc(CNCC3CCC3)[nH]c2c1)c1cn2ncc3c2c(n1)OCCO3 [Example 61, N-((2-(((Cyclobutylmethyl)amino)methyl)-1H-indol-6-yl)methyl)-7,8-dihydro-6,9-dioxa-2,2a,5-triazabenzo[cd]azulene-4-carboxamide]	100 to 1000

Next, values leading:

IC50 [nM]	Structure (SMILES)
10 to 100	O=C(NCc1ccc2cc(CNCC3CCC3)[nH]c2c1)c1cn2ncccc2n1 [Example 1, N-((2-(((Cyclobutylmethyl)amino)methyl)-1H-indol-6-yl)methyl)imidazo[1,2-b]pyridazine-2-carboxamide]
10 to 100	O=C(NCc1ccc2cc(CNCC3CCC3)[nH]c2c1)c1cc2ncccn2n1 [Example 2, N-((2-(((Cyclobutylmethyl)amino)methyl)-1H-indol-6-yl)methyl)pyrazolo[1,5-a]pyrimidine-2-carboxamide]
10 to 100	O=C(NCc1ccc2cc(CNCC3CCC3)[nH]c2c1)c1cnn2cccnc12 [Example 3, N-((2-(((Cyclobutylmethyl)amino)methyl)-1H-indol-6-yl)methyl)pyrazolo[1,5-a]pyrimidine-3-carboxamide]
10 to 100	O=C(NCc1ccc2cc(CNCC3CCC3)[nH]c2c1)c1ccn(Cc2ccccc2)c(=O)c1 [Example 11, 1-Benzyl-N-((2-(((cyclobutylmethyl)amino)methyl)-1H-indol-6-yl)methyl)-2-oxo-1,2-dihydropyridine-4-carboxamide]
10 to 100	CNc1nc(C(=O)NCc2ccc3cc(CNCC4CCC4)[nH]c3c2)cn2nccc12 [Example 13, N-((2-(((Cyclobutylmethyl)amino)methyl)-1H-indol-6-yl)methyl)-4-(methylamino)pyrazolo[1,5-a]pyrazine-6-carboxamide]
10 to 100	COc1ccc(CNc2nc(C(=O)NCc3ccc4cc(CNCC5CCC5)[nH]c4c3)cn3nccc23)cc1 [Example 14, N-((2-(((Cyclobutylmethyl)amino)methyl)-1H-indol-6-yl)methyl)-4-((4-methoxybenzyl)amino)pyrazolo[1,5-a]pyrazine-6-carboxamide]
10 to 100	O=C(NCc1ccc2cc(CN3CCC(F)(F)CC3)[nH]c2c1)c1cc(=O)n2cc3c(cc2n1)OCCO3 [Example 27]
< 10	O=C(NCc1ccc2cc(CNCC34CCCC3C4)[nH]c2c1)c1cc(=O)n2cc3c(cc2n1)OCO3 (stereo not shown) [Example 60, N-((2-(((Bicyclo[3.1.0]hexan-1-ylmethyl)amino)methyl)-1H-indol-6-yl)methyl)-8-oxo-8H-[1,3]dioxolo[4',5':4,5]pyrido[1,2-a]pyrimidine-6-carboxamide]
< 10	[2H]C([2H])(NCC1CCC1)c1cc2ccc(CNC(=O)c3cc(=O)n4cc5c(cc4n3)OCO5)cc2[nH]1 [Example 62, N-((2-(((cyclobutylmethyl)amino)methyl-d2)-1H-indol-6-yl)methyl)-8-oxo-8H-[1,3]dioxolo[4',5':4,5]pyrido[1,2-a]pyrimidine-6-carboxamide]
< 10	O=C(NCc1ccc2cc(CNCC34CCCC3C4)[nH]c2c1)c1cc(=O)n2cc3c(cc2n1)OCCO3 (stereo not shown) [Example 63, N-((2-(((Bicyclo[3.1.0]hexan-1-ylmethyl)amino)methyl)-1H-indol-6-yl)methyl)-9-oxo-2,3-dihydro-9H-[1,4]dioxino[2',3':4,5]pyrido[1,2-a]pyrimidine-7-carboxamide]
< 10	O=C(NCc1cc2[nH]c(CNCC34CC(F)(C3)C4)cc2cc1F)c1cc(=O)n2cc3c(cc2n1)OCO3 [Example 74, N-((5-fluoro-2-((((3-fluorobicyclo[1.1.1]pentan-1-yl)methyl)amino)methyl)-1H-indol-6-yl)methyl)-8-oxo-8H-[1,3]dioxolo[4',5':4,5]pyrido[1,2-a]pyrimidine-6-carboxamide]
